Test results published in ChEMBL document CHEMBL1201862, “PubChem BioAssay data set” (2004).
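48-hour exposure; five concentrations; linearly interpolated endpoints. The concentration for 50% growth inhibition is given as GI50.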 The source made the active and inactive calls. No stated cut-off is given here; in the data, active = GI50 up to about 1.1 µM and inactive = higher.

What was measured:
Test in all cases: growth of human tumour cells (NCI), 48 h
HCC 2998 = system: HCC 2998
KM-20L2 = system: KM-20L2
NCI-H460 = system: NCI-H460
HOP-18 = system: HOP-18
IGROV-1 = system: IGROV-1
SF-268 = system: SF-268
HCT-116 = system: HCT-116
HOP-92 = system: HOP-92
NCI-H23 = system: NCI-H23
SK-MEL-5 = system: SK-MEL-5
OVCAR-8 = system: OVCAR-8
K562 = system: K562
LOX IMVI = system: LOX IMVI
M14 = system: M14
UACC-257 = system: UACC-257
SNB-19 = system: SNB-19
SR = system: SR
U-251 = system: U-251
SK-MEL-28 = system: SK-MEL-28
DMS-114 = system: DMS-114
NCI/ADR-RES = system: NCI/ADR-RES
TK-10 = system: TK-10
Malme-3M = system: Malme-3M
HT-29 = system: HT-29
KM12 = system: KM12
XF498 = system: XF498
SNB-75 = system: SNB-75
EKVX = system: EKVX
DMS-273 = system: DMS-273
MCF7 = system: MCF7
SW-620 = system: SW-620
ACHN = system: ACHN
HL-60 = system: HL-60
SK-MEL-2 = system: SK-MEL-2
COLO 205 = system: COLO 205
SK-OV-3 = system: SK-OV-3
DLD-1 = system: DLD-1
CAKI-1 = system: CAKI-1
OVCAR-5 = system: OVCAR-5
OVCAR-4 = system: OVCAR-4
RPMI-8226 = system: RPMI-8226
LXFL 529 = system: LXFL 529
SF-295 = system: SF-295
MOLT-4 = system: MOLT-4
SN12C = system: SN12C
HOP-62 = system: HOP-62
NCI-H226 = system: NCI-H226
OVCAR-3 = system: OVCAR-3
786-0 = system: 786-0
A549 = system: A549
UACC-62 = system: UACC-62
A498 = system: A498
CCRF-CEM = system: CCRF-CEM
RXF 393 = system: RXF 393
HCT-15 = system: HCT-15
UO-31 = system: UO-31
M19-MEL = system: M19-MEL
NCI-H522 = system: NCI-H522
SF-539 = system: SF-539
SNB-78 = system: SNB-78

Measured: GI50

Nc1ncc(CN2CCCC2)c(-c2ccccc2O)n1
> 750 µM: HCT-15
inactive: HCC 2998 > 750 µM | KM-20L2 > 750 µM | NCI-H460 > 750 µM | HOP-18 433 µM | IGROV-1 > 750 µM | SF-268 > 750 µM | HCT-116 > 750 µM | HOP-92 > 750 µM | NCI-H23 > 750 µM | SK-MEL-5 > 750 µM | OVCAR-8 > 750 µM | K562 4.51 µM | LOX IMVI 38.4 µM | M14 > 750 µM | UACC-257 > 750 µM | SNB-19 > 750 µM | SR > 750 µM | U-251 > 750 µM | SK-MEL-28 > 750 µM | DMS-114 > 750 µM | NCI/ADR-RES > 100 µM | TK-10 > 750 µM | Malme-3M > 750 µM | HT-29 > 750 µM | KM12 > 750 µM | XF498 > 750 µM | SNB-75 > 750 µM | EKVX > 100 µM | DMS-273 > 750 µM | MCF7 > 100 µM | SW-620 > 750 µM | ACHN > 750 µM | HL-60 4.31 µM | SK-MEL-2 > 100 µM | COLO 205 > 750 µM | SK-OV-3 > 750 µM | DLD-1 > 750 µM | CAKI-1 > 750 µM | OVCAR-5 > 750 µM | OVCAR-4 > 750 µM | RPMI-8226 > 750 µM | LXFL 529 > 750 µM | SF-295 > 750 µM | MOLT-4 > 750 µM | SN12C > 750 µM | HOP-62 > 750 µM | NCI-H226 > 750 µM | OVCAR-3 > 750 µM | 786-0 > 750 µM | A549 > 750 µM | UACC-62 > 750 µM | A498 > 750 µM | CCRF-CEM 8.39 µM | RXF 393 > 750 µM | UO-31 > 750 µM | M19-MEL > 750 µM | NCI-H522 > 750 µM | SF-539 > 750 µM

Cn1ccnc1C(O)(c1nccn1C)c1nccn1C
inactive: HCC 2998 > 100 µM | NCI-H460 > 100 µM | HOP-18 14.1 µM | SF-268 > 100 µM | HOP-92 > 100 µM | NCI-H23 > 100 µM | SK-MEL-5 > 100 µM | OVCAR-8 > 100 µM | LOX IMVI > 100 µM | M14 > 100 µM | UACC-257 > 100 µM | SNB-19 > 100 µM | SR > 100 µM | U-251 > 100 µM | SK-MEL-28 > 100 µM | DMS-114 > 100 µM | TK-10 > 100 µM | Malme-3M > 100 µM | HT-29 > 100 µM | KM12 > 100 µM | XF498 > 100 µM | SNB-75 > 100 µM | EKVX > 100 µM | SW-620 > 100 µM | ACHN > 100 µM | HL-60 > 100 µM | SK-MEL-2 > 100 µM | COLO 205 > 100 µM | DLD-1 > 100 µM | CAKI-1 > 100 µM | OVCAR-5 > 100 µM | OVCAR-4 > 100 µM | SNB-78 > 100 µM | LXFL 529 > 100 µM | SF-295 > 100 µM | SN12C > 100 µM | HOP-62 > 100 µM | NCI-H226 > 100 µM | RXF 393 > 100 µM | UO-31 > 100 µM | M19-MEL > 100 µM | NCI-H522 > 100 µM

CC(C)COC(=O)N1N=NC2C3OC(CC3=O)C21 (stereo unspecified)
inactive: HCC 2998 > 100 µM | KM-20L2 > 100 µM | NCI-H460 > 100 µM | HOP-18 > 100 µM | IGROV-1 > 31.6 µM | SF-268 > 100 µM | HCT-116 > 100 µM | HOP-92 > 100 µM | NCI-H23 > 100 µM | SK-MEL-5 > 100 µM | OVCAR-8 > 100 µM | K562 > 100 µM | LOX IMVI > 100 µM | M14 > 100 µM | UACC-257 > 100 µM | SNB-19 > 100 µM | SR > 100 µM | U-251 > 100 µM | SK-MEL-28 > 100 µM | DMS-114 > 100 µM | TK-10 > 100 µM | Malme-3M > 100 µM | HT-29 > 100 µM | KM12 > 100 µM | XF498 > 100 µM | SNB-75 > 100 µM | EKVX > 100 µM | DMS-273 > 100 µM | SW-620 > 100 µM | ACHN > 100 µM | HL-60 > 100 µM | SK-MEL-2 > 100 µM | COLO 205 > 100 µM | SK-OV-3 40.4 µM | DLD-1 > 100 µM | CAKI-1 > 100 µM | OVCAR-5 > 100 µM | OVCAR-4 > 100 µM | RPMI-8226 > 100 µM | LXFL 529 > 100 µM | SF-295 > 100 µM | MOLT-4 > 100 µM | SN12C > 100 µM | HOP-62 > 100 µM | NCI-H226 > 100 µM | OVCAR-3 > 100 µM | 786-0 > 100 µM | UACC-62 43.6 µM | A498 > 100 µM | CCRF-CEM > 100 µM | RXF 393 > 100 µM | UO-31 > 100 µM | M19-MEL > 100 µM | NCI-H522 > 100 µM | SF-539 > 100 µM
> 100 µM: HCT-15

COC(=O)[C@H](CC(C)C)NC(=O)[C@H](Cc1ccccc1)N1CC2C=CC1C2 (stereo partly specified)
inactive: HCC 2998 > 100 µM | KM-20L2 > 100 µM | NCI-H460 > 100 µM | HOP-18 > 100 µM | IGROV-1 > 100 µM | SF-268 > 100 µM | HOP-92 96.6 µM | NCI-H23 > 100 µM | SK-MEL-5 > 100 µM | OVCAR-8 > 100 µM | K562 > 100 µM | LOX IMVI > 100 µM | M14 > 100 µM | UACC-257 > 100 µM | SNB-19 > 100 µM | U-251 > 100 µM | SK-MEL-28 > 100 µM | DMS-114 > 100 µM | TK-10 > 100 µM | Malme-3M > 100 µM | HT-29 > 100 µM | KM12 > 100 µM | XF498 > 100 µM | SNB-75 > 100 µM | EKVX > 100 µM | DMS-273 > 100 µM | SW-620 > 100 µM | ACHN > 100 µM | HL-60 47.6 µM | SK-MEL-2 > 100 µM | COLO 205 > 100 µM | SK-OV-3 > 100 µM | CAKI-1 > 100 µM | OVCAR-5 > 100 µM | OVCAR-4 > 100 µM | RPMI-8226 29.1 µM | LXFL 529 > 100 µM | SF-295 > 100 µM | MOLT-4 > 100 µM | SN12C > 100 µM | HOP-62 > 100 µM | NCI-H226 > 100 µM | OVCAR-3 > 100 µM | 786-0 > 100 µM | A549 > 100 µM | UACC-62 > 100 µM | A498 > 100 µM | CCRF-CEM > 100 µM | RXF 393 > 100 µM | UO-31 > 100 µM | M19-MEL > 100 µM | NCI-H522 > 100 µM | SF-539 > 100 µM
> 100 µM: HCT-15

CCCn1cc2c(O)nc(SC)nc2n1
inactive: HCC 2998 > 100 µM | NCI-H460 > 100 µM | HOP-18 28.8 µM | IGROV-1 > 100 µM | SF-268 59 µM | HCT-116 > 100 µM | HOP-92 > 100 µM | NCI-H23 > 100 µM | SK-MEL-5 > 100 µM | OVCAR-8 > 100 µM | K562 > 10 µM | LOX IMVI > 100 µM | M14 > 100 µM | UACC-257 > 100 µM | SNB-19 > 100 µM | SR 57.3 µM | U-251 > 100 µM | SK-MEL-28 > 100 µM | DMS-114 91.6 µM | TK-10 > 100 µM | Malme-3M > 100 µM | HT-29 > 100 µM | KM12 > 100 µM | XF498 45.3 µM | SNB-75 41.6 µM | EKVX > 100 µM | DMS-273 > 100 µM | SW-620 > 100 µM | ACHN > 100 µM | HL-60 > 100 µM | SK-MEL-2 > 100 µM | COLO 205 > 100 µM | DLD-1 > 100 µM | CAKI-1 > 100 µM | OVCAR-5 79.4 µM | OVCAR-4 91.4 µM | RPMI-8226 > 100 µM | SNB-78 32.3 µM | LXFL 529 > 100 µM | SF-295 > 100 µM | MOLT-4 > 100 µM | SN12C > 100 µM | NCI-H226 19.9 µM | A549 > 100 µM | A498 59.6 µM | CCRF-CEM > 100 µM | RXF 393 > 100 µM | UO-31 72.6 µM | SF-539 > 100 µM
> 100 µM: HCT-15
